# Source: US20120238488A1, “COMPOUNDS AND METHODS FOR TREATING NEOPLASIA” (priority 2009, published 2012)
# Assays:
# [1] = system: membrane androgen receptor; assay: Membrane androgen receptor competition assay, DU145 cells; type: binding; conditions: 40 μM compound 30 minutes before 40 μM testosterone-HSA-FITC, FIGS. 3B, 3C
# Source text: To assess whether compounds of the invention were capable of binding directly to the membrane androgen receptor, a fluorescent-based assay was used to measure the ability of a given compound to preclude binding of a fluorescent mAR ligand (testosterone-HSA-FITC conjugates) to its receptor in LNCaP and DU145 cells (see Kampa, M et al, 2002, Faseb J 16:1429-1431, and PCT/U52007/007913).
# The detection of membrane androgen receptors using fluorescent testosterone-serum albumin conjugates was performed as described by Kampa, M et al, 2002, Faseb J 16:1429-1431, with minor modifications. Briefly, LNCaP or DU145 prostate cancer cells were cultured on 0.1% gelatin-coated glass coverslips in RPMI 1640 medium supplemented with 2 mM L-Glutamine, 10% Fetal Bovine Serum and 1% Penicillin/Streptomycin for at least 48 hours until reaching 70% confluency. After a 24 hour serum starvation period, cells were incubated with 40 μM testosterone-HSA-FITC for 1 hour at room temperature. The cells were then washed three times with phosphate buffered saline (PBS) and fixed with 3.7% formaldehyde in PBS for 5 minutes at room temperature. Human serum albumin-FITC was used as a control for background staining. […] Coverslips were mounted on slides by using the Slow Fade/Antifade Reagent (Molecular Probes) and studied under a LEICA DMLB microscope, equipped with the appropriate fluorescence filters and a Leica DC 300F camera. Specimens were analyzed using the Leica FW4000 computer program.
# To determine the capacity of a given compound to preclude binding of fluorescent testosterone-HSA conjugates (TAC) to the membrane androgen receptor, starved LNCaP or DU145 cells on coverslips prepared as described above were pre-treated with 40 μM of the indicated compound for 30 minutes prior to the addition of testosterone-HSA-FITC. […] Specimens were prepared and analyzed as described above. Compounds binding to the membrane androgen receptor preclude binding of fluorescent testosterone-HSA conjugates to their target and abolish membrane-specific fluorescence.
# H160 (Lung) = assay: SRB assay, H160; type: cell-based, human; conditions: 48 h
# Method: (§1) SRB assays were performed according to standard National Cancer Institute Guidelines. Briefly, human tumor cells from different cancer panels were seeded into 96 well plates in 100 μL (plating densities ranging from 5-40,000 cells/well depending on the doubling time of individual cell lines) in serum-containing media for twenty-four hours prior to the addition of the compounds to be assayed. After 24 hours, one plate of each cell line was fixed in situ with trichloroacetic acid (TCA). The fixed slides were used to determine the cell population for each cell line at the time of drug addition (Tz). Each compound to be tested was solubilized in DMSO and the desired concentration was then added to the medium and diluted serially 1:10 to provide a total of five or ten drug concentrations plus control (in a final volume of 200 μL). The starting dose before any dilution was 100 uM for all compounds.
# (§2) Following drug addition, each culture was incubated for forty-eight hours. The assay was terminated with the addition of cold TCA. The supernatant was discarded, and the plates were washed with tap water and air dried. Sulforhodamine B (SRB) solution was then added to each well. After staining, the bound stain was solubilized and the absorbance was read on an automated plate reader at a wavelength of 515 nm.
# (§3) Using the absorbance measurements [time zero, (Tz), control growth, (C), and test growth in the presence of drug at the ten concentration levels (Ti)], the percentage growth was calculated at each of the drug concentrations levels. Percentage growth inhibition was calculated as:
# (§4) [(Ti−Tz)/(C−Tz)]×100 for concentrations for which Ti>/=Tz
# (§5) [(Ti−Tz)/Tz]×100 for concentrations for which Ti<Tz.
# (§6) Three dose response parameters were calculated for each experimental agent. Growth inhibition of 50% (GI50) was calculated from [(Ti−Tz)/(C−Tz)]×100=50, which was the drug concentration resulting in a 50% reduction in the net protein increase (as measured by SRB staining) in control cells during the drug. The drug concentration resulting in total growth inhibition (TGI) was calculated from Ti=Tz. The LC50 (concentration of drug resulting in a 50% reduction in the measured protein at the end of the drug treatment as compared to that at the beginning) indicating a net loss of cells following treatment was calculated from [(Ti−Tz)/Tz]×100=−50.
# (§7) Values were calculated for each of these three parameters when the level of activity was reached; however, if the effect was not reached or was exceeded, the value for that parameter was expressed as greater or less than the maximum or minimum concentration tested.
# (§8) Table 4 summarizes results characterizing the effects of compound Nos. 120, 12, 61, 1, and 56 on GI50, which measures the cell growth inhibitory power of the compound, TGI, which measures cytostatic effect (TGI) and LC50, which signifies cytotoxic effect. Each of these parameters in Table 4 was calculated in a sulforhodamine B (SRB) assay, which provides a colorimetric measure of a compound's anti-cancer activity. SRB assays were performed with compounds of the invention in 22 different cell lines (shaded in light gray in Table 4), which represent nine different tumor panels (lung, melanoma, ovary, prostate, CNS, breast, pancreas colon and renal). Ouabain and digoxin were used as controls. Paclitaxel was added as a non-Na^+K^+-ATPase inhibitor control.
# PCJ (Prostate) = assay: SRB assay, PCJ; type: cell-based; conditions: Homo sapiens, 48 h
# Method: as §1, §2, §3, §4, §5, §6, §7, §8
# SF268 (CNS) = assay: SRB assay, SF268; type: cell-based; conditions: Homo sapiens
# Method: as §1, §2, §3, §4, §5, §6, §7, §8
# MCF7 (Breast) = assay: SRB assay, MCF7; type: cell-based, human
# Method: as §1, §2, §3, §4, §5, §6, §7, §8
# HCT116 (Colon) = assay: SRB assay, HCT116; type: cell-based; conditions: Homo sapiens
# Method: as §1, §2, §3, §4, §5, §6, §7, §8
# [2] = system: 22 different cell lines, nine tumor panels (lung, melanoma, ovary, prostate, CNS, breast, pancreas colon and renal); assay: SRB assay, all tumor cell line panels (summary statements); type: cell-based, human; conditions: lung, breast, CNS, colon, prostate, ovary, pancreas, kidney and melanoma lines, including a multidrug resistant cell line
# Method: as §1, §2, §3
# Three dose response parameters were calculated for each experimental agent. […] The drug concentration resulting in total growth inhibition (TGI) was calculated from Ti=Tz. The LC50 (concentration of drug resulting in a 50% reduction in the measured protein at the end of the drug treatment as compared to that at the beginning) indicating a net loss of cells following treatment was calculated from [(Ti−Tz)/Tz]×100=−50.
# Each of these parameters in Table 4 was calculated in a sulforhodamine B (SRB) assay, which provides a colorimetric measure of a compound's anti-cancer activity. SRB assays were performed with compounds of the invention in 22 different cell lines (shaded in light gray in Table 4), which represent nine different tumor panels (lung, melanoma, ovary, prostate, CNS, breast, pancreas colon and renal). […] Paclitaxel was added as a non-Na^+K^+-ATPase inhibitor control.
smiles,measurement,setting,value
"C[C@]12CC[C@H](O)C[C@H]1CC[C@@H]1[C@@H]2CC[C@]2(C)[C@@](O)(c3ccoc3)CC[C@]12O [rostafuroxin, reference compound]",membrane fluorescence of TAC-FITC after pre-treatment (binding to mAR precluded),[1],failed to block binding of TAC-FITC to mAR
"C[C@@H]1O[C@@H](O[C@H]2C[C@@H](O)[C@]3(CO)[C@H]4[C@H](O)C[C@]5(C)[C@@H](C6=CC(=O)OC6)CC[C@]5(O)[C@@H]4CC[C@]3(O)C2)[C@H](O)[C@H](O)[C@H]1O [Ouabain, reference compound]",TGI,"H160 (Lung); H160, SRB",100 nM
same,CC50,"H160 (Lung); Homo sapiens, read-out: LC50",300 nM
same,GI50,"H160 (Lung); Homo sapiens, H160, SRB",< 80 nM
same,CC50,PCJ (Prostate); read-out: LC50,300 nM
same,GI50,"PCJ (Prostate); PCJ, SRB",< 80 nM
same,IC (TGI),"PCJ (Prostate); PCJ, SRB",100 nM
same,CC50,"SF268 (CNS); SF-268, 48 h, read-out: LC50",300 nM
same,GI50,"SF268 (CNS); SF-268, SF268, SRB, 48 h, read-out: GI50",< 80 nM
same,IC (TGI),"SF268 (CNS); SF-268, SF268, SRB, 48 h, read-out: TGI",100 nM
same,CC50,"MCF7 (Breast); Homo sapiens, MCF7, 48 h, read-out: LC50",300 nM
same,GI50,"MCF7 (Breast); Homo sapiens, MCF7, SRB, 48 h",< 80 nM
same,TGI,"MCF7 (Breast); MCF7, SRB, 48 h",200 nM
same,CC50,"HCT116 (Colon); HCT-116, 48 h, read-out: LC50",> 50000 nM
same,GI50,"HCT116 (Colon); HCT-116, HCT116, SRB, 48 h",< 80 nM
same,IC (TGI),"HCT116 (Colon); HCT-116, HCT116, SRB, 48 h",4500 nM
"C[C@]12CCC(=NOCCn3cc(CN)nn3)CC1CCC1C2CC[C@]2(C)C(=O)CCC12 (stereo partly drawn) [Compound 31, (10S,13S)-3-(2-(4-(aminomethyl)-1H-1,2,3-triazol-1-yl)ethoxyimino)-10,13-dimethyltetradecahydro-1H-cyclopenta[a]phenanthren-17(2H)-one]",viability and/or cell proliferation of neoplastic cell lines,[2],reduced the viability and/or cell proliferation
